Results reported in patent publication US12427180B2, “Treatment of respiratory tract diseases and infections with ascorbic acid compositions” (RENOVION, INC., priority 2016, dated 2025).

Tests used:
[1] = Stability: oxidized glutathione and reduced ascorbic acid after storage; type: physicochemical; settings: ascorbic acid only, pH not given; Ambient; stored at 5° C. for 4 weeks
Method: The amount of glutathione and ascorbic acid oxidiation were determined for Composition 1 at pH 5.5, 6.0, and 6.5. Oxidized glutathione is associated with the generation of protein-carbonyls via glutathionlyation, which occurs when oxidized glutathione dissociates and attaches to proteins. The % oxidized glutathione (% GSSG) was determined after 4 weeks of storage of Composition 1 at pH 5.5, 6.0, and 6.5 under N2-sparged and ambient conditions. Additionally, when ascorbic acid is oxidized into dehydroascorbate (DHA), DHA can break down and result in the formation of protein adducts in process called ascorbylation (Simpson et al., Biochim biophys Acta 2000; 1501:12-24). The % reduced ascorbic acid maintained in Composition 1 (% ASC) was determined after 4 weeks of storage of Composition 1 at pH 5.5, 6.0, and 6.5 under N2-sparged (anaerobic) and ambient conditions. Specifically, nitrogen-sparged samples were mixed under anaerobic conditions sparged with nitrogen, and the samples were packaged using nitrogen bubbling. Ambient samples were mixed under room air conditions and were not bubbled with nitrogen. The formulations were stored at 5° C. for 4 weeks, and the percent of oxidized glutathione (GSSG) and ascorbic acid (ASC) was measured for each sample according to standard techniques.

[2] = test system: Pseudomonas aeruginosa (Schroeter) Migula (ATCC BAA-47 (PAO1)); assay: MIC against Pa BAA-47 (PAO1); type: cell-based; settings: Anaerobic (+nitrate), 12 hrs
Method: (§1) The MICs of Composition 1 (glutathione, ascorbic acid, and HCO3); glutathione and ascorbic acid; and HCO3 were tested against clinical isolates, including Burkholderia cepacia, Pseudomonas aeruginosa (Schroeter) Migula (ATCC 27853), Pseudomonas aeruginosa (Schroeter) Migula (ATCC 9027), Pseudomonas aeruginosa (Schroeter) Migula (ATCC BAA-2114), Klebsiella pneumonia, methicillin resistant Staphylococcus aureus; laboratory strains of Moraxella catarrhalis, Stenotrophomonas maltophilia, Acinetobacter baumannii; and eight samples of mucoid and nonmucoid Pseudomonas aeruginosa clinical isolates from human lung. The MIC for laboratory clinical isolate Pseudomonas aeruginosa (Schroeter) Migula (ATCC BAA-47 (PAO1)) was also tested. The MICs were determined under anaerobic conditions on media supplemented with nitrate, under aerobic conditions supplemented with nitrate, or under ambient conditions.
(§2) The clinical isolates were inoculated in duplicate on agar plates overnight under anaerobic conditions at 36° C.±1.0° C. in a 96-well plate. Laboratory isolates of Burkholderia cepacia were also grown in duplicate overnight under aerobic conditions at 36° C.±1.0° C. in a 96-well plate. […] MICs were determined via visual inspection and OD620.

[3] = test system: Pa UAB-NM-1 (nonmucoidy P. aeruginosa clinical isolate from lung); assay: MIC against Pa UAB-NM-1; type: cell-based, Pseudomonas aeruginosa; settings: Anaerobic (+nitrate), 12 hrs
Method: as §1, §2

[4] = test system: Pa UAB-M-2 (mucoidy P. aeruginosa clinical isolate from lung); assay: MIC against Pa UAB-M-2; type: cell-based, Pseudomonas aeruginosa; settings: Anaerobic (+nitrate), 12 hrs
Method: as §1, §2

[5] = test system: Pa UAB-NM-3 (nonmucoidy P. aeruginosa clinical isolate from lung); assay: MIC against Pa UAB-NM-3; type: cell-based, Pseudomonas aeruginosa; settings: Anaerobic (+nitrate), 12 hrs
Method: as §1, §2

[6] = test system: Pa UAB-NM-5 (nonmucoidy P. aeruginosa clinical isolate from lung); assay: MIC against Pa UAB-NM-5; type: cell-based, Pseudomonas aeruginosa; settings: Anaerobic (+nitrate), 12 hrs
Method: as §1, §2

MRSA UAB-1 = assay: MIC against MRSA UAB-1; type: cell-based, Staphylococcus aureus; settings: Anaerobic (+nitrate), 12 hrs
Method: as §1, §2

MRSA UAB-3 = assay: MIC against MRSA UAB-3; type: cell-based, Staphylococcus aureus; settings: Anaerobic (+nitrate), 12 hrs
Method: as §1, §2

O=C1O[C@H]([C@@H](O)CO)C(O)=C1O [Ascorbic Acid Only, ascorbic acid]
% ASC (reduced ascorbic acid maintained) [1]: 77.88%

O=C([O-])O.[Na+] [HCO3, sodium bicarbonate]
MIC [2]: 12.5% (12
MIC [3]: 12.5%(12
MIC [4]: 12.5%(12
MIC [5]: 12.5% (12
MIC [6]: 12.5% (12
MIC (MRSA UAB-1): 25% (12
MIC (MRSA UAB-3): 25% (12
